How the values were obtained:
[1] = system: APP/PS1 transgenic mice; assay: Alzheimer's disease model, eight-arm radial water maze and brain gene expression; format: in vivo, mouse; settings: 30 days in food, 10 mg/kg body weight/day (donepezil 3 mg/kg body weight/day)
Description: A common indicator used in academia in memory and dementia experiments is the number of errors in the water maze (reference memory). More errors mean poorer memory. On the last 3 days of dosing, eight-arm radial water maze was used by experimenters who were blind to drug treatment. As a classic experimental instrument, to detect slight deficits in learning and memory, the eight-arm water maze is more sensitive than not only Morris maze, but also Six-arm radial water maze. For details, see reference 8: Alamed J et al. Two-day radial-arm water maze learning and memory task; robust resolution of amyloid-related memory deficits in transgenic mice [J]. […] This experiment uses an eight-arm water maze built in accordance with the above literature. The eight-arm water maze is placed in a basin with an interior diameter of 102 cm. Each arm measures 30 cm long, 14.5 cm wide, and 40 cm high. Escape platform is located at the end of one of the arms. In the reference memory version of the task described here, the goal arm is held constant for all trials, with a different start arm on successive trials. On day one, mice received 12 trials, with trials alternating between visible and hidden platform. On day 2 and 3, mice received 12 additional trials but the platform was kept hidden throughout the trials. Entry into an incorrect arm was scored as a spatial reference error. Errors were averaged into three trial blocks, with four blocks per day, e.g., the first block (the 1st to 3rd trial), the second block (the 4th to 6th trial), and so on. […]. The line charts were made with the number of blocks as the abscissa and the average of the number of errors as the ordinate. At the end of the experiments, the cerebral cortex and hippocampus of the mice were removed, RNA was extracted, and the expression of many genes was analyzed by semi-quantitative RT-PCR. […] The difference is significant with P<0.05.

[2] = system: rat model of hyperglycemia-induced nephropathy; assay: Hyperglycemia-induced nephropathy model (streptozotocin); format: in vivo; settings: streptozotocin rats, 5 mg/kg body weight/day in food, 90 days
Method: The method was as follows:
Wild type Sprague-Dawley rats were used. The compounds was dissolved in DMSO and mixed into food pellets. The animals were given ad libitum access to the pellets. […] In addition, 3 days before compound treatment, the animal of group 2 to 4 were given a single intraperitoneal injection of streptozotocin, and 3 days later, blood glucose levels were measured from tail veins using a glucose meter. Animals with blood glucose levels above 500˜650 milligrams per deciliter were considered as hyperglycemia and were used for further study. No any side effect, or significant body weight changes, or significant dietary changes were found during the administration. After 90 days after initiation of treatment, blood pressure values were measured with the tail cuff system. The day before the kidneys were harvested, animals were placed in metabolic cages for 24 h for urine collection, and albumin to creatinine ratio (ACR) was measured. Animals were then fasted for 12 hours and sacrificed under anesthesia with a 10% chloral hydrate solution (0.3 g/kg). Serum samples were isolated and biochemical parameters were analyzed with by enzyme colorimetry in an automatic analyzer (Roche) to determine the FBG (fasting blood glucose) level (unit millimole/L). In addition, fasting insulin (FINS) levels, where the units are milliIU/L, were determined by enzyme-linked immunosorbent assay (ELISA) method with anti-rat insulin antibodies, and TNF-α was detected by rat tumor necrosis factor-α (TNF-α) ELISA kit (BD). […] The difference is significant with P<0.05.

[3] = molecular target: T1, PPARγ (Homo sapiens, UniProt P37231); assay: In vitro transcriptional activity of PPARγ gene (PPRE-luciferase reporter, HEK 293 T cells); format: cell-based; settings: HEK 293 T cells transfected with PPARγ expression and PPRE-luc plasmids, 21 hours; read-out: EC50 of PPARγ gene activation
T1 construct: expressed in transfected cells; host or cells: HEK 293 T cells
T1 sequence (P37231 1-505): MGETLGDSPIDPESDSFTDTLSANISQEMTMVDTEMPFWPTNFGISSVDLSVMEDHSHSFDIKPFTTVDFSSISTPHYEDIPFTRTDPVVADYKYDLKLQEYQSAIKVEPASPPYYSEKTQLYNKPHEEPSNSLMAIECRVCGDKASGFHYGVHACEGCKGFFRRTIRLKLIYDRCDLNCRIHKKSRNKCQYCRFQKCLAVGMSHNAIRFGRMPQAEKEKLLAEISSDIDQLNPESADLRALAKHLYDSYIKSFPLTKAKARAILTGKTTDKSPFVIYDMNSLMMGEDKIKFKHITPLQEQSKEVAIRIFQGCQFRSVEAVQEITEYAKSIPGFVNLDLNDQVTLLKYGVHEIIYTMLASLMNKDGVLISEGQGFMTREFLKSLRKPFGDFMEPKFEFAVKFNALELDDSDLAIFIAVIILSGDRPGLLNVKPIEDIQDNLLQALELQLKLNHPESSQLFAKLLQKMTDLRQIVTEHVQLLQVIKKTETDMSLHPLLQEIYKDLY
Description: In this experiment, the PPARγ gene was used as target gene to detect the in vitro transcription activity of the compounds. The compounds of interest were detected was first dissolved with dimethyl sulfoxide (DMSO). […] First two plasmids were constructed: PPARγ protein expression plasmid and luciferase reporter plasmid. They are both from the lentiviral plasmid pLV-CMVIE-ZsGreen-Puro, whose DNA sequence contains the cytomegalovirus immediate early (CMVie) promoter, ZsGreen and Puro dual reporter. The PPARγ expression plasmid pLV-CMVIE-PPAR[…]-ZsGreen-Puro was constructed by cloning full-length coding sequences of the pertinent receptors into pHBLV-CMVIE-ZsGreen-Puro vector. To construct the luciferase (luc) reporter plasmid pLV-PPRE-luc-ZsGreen-Puro, the CMVie promoter in plasmid pHBLV-CMVIE-ZsGreenPuro was first replaced by a peroxisome proliferator responsive element (PPRE) containing fragments comprised the nucleotide sequence 50-[…], repeated four times in tandem, to generate a new plasmid, at a multiple cloning site of which the luc gene was then inserted. […] The compounds used for screening are representatives for compounds listed in Table 2, and Tables 3 of the present invention. […] Cells were distributed in 10-cm tissue culture plates at a density of 5.5 million cells per plate, and then transfected with the luciferase reporter plasmid (6 nanogram/plate) and the PPARγ expression plasmid (18 nanogram/plate). Cells were cultured for 6 hours. […] Then the cells were distributed in 96-well plates at a density of 20,000 cells per well. After incubation for 6 h, compounds or control with different concentration were placed into each well, resulting in the finical concentration of […] with each concentration in triplicate. Twenty-one hours later, promoter activation was detected by the addition of SteadyLite (PerkinElmer, Waltham, MA) and GloMax 96 Microplate Luminometer (Promega, Madison, WI). The amount of Luminometer emitted from each well is positively correlated with the expression of PPARγ gene. A three-parameter Sigmoid function curve was used to fit the obtained data. The abscissa represents the logarithmic value of the concentration, and the ordinate represents the percentage of PPARγ gene activation relative to those of the control. […] In Statistical analysis, the coefficient of variation is used to measure the robustness and repeatability of the experiment. […] The difference is significant with P<0.05. EC50 is a parameter of its activity.

[4] = system: LN-229 cells; assay: Brain cancer model, LN-229 cells injected into the striatum, tumor volume; format: in vivo, mouse; settings: mice with LN-229 cells in striatum, 5 mg/kg body weight/day
Method: The treatment lasted for a total of 30 days. The compounds was dissolved in DMSO and mixed into food pellets. The animals were given ad libitum access to the pellets. […] The difference is significant with P<0.05.

[5] = system: klotho gene; assay: In vivo brain transcriptional activity of klotho gene (RT-PCR of brain mRNA); parameters: species or system mouse; settings: 10 mg/kg body weight/day tail vein
Method: To verify this hypothesis, adult male Kunming mice were used in the experiments. […] The injection volume is 8 ml/kg body weight. Dimethyl sulfoxide (DMSO) was used as a vehicle control of the compounds. […] The RNA was then reverse-transcribed to the cDNA, and quantified by SYBR Green fluorescence quantitative PCR kit (HaiGene) and a quantitative PCR system (Bio-Rad Min-Opticon Type 2) were used for real-time fluorescent quantitative polymerase chain reaction (RT-PCR). The mouse gene primers were design as follows: • KLOTHO-forward 5′-[…]-3′; • LOTHO-reverse 5′-[…]-3′; • GAPDH-forward 5′-[…]-3′; • GAPDH-reverse 5′-[…]-3′.
Data analysis was performed using the 2^−ΔΔct method. Semi-quantitative values of gene expression were then normalized by the control mean.

CCc1ccc(CC/C=C/c2ccc3c(c2)NC(=O)CC3)cc1 [ELB00727, (E)-7-(4-(4-ethylphenyl)but-1-en-1-yl)-3,4-dihydroquinolin-2(1H)-one]
number of errors in water maze on the third day ([1]; 5 on the first day): ~1
reduction in the number of errors (reference memory), third day compared with first day ([1]; eight-arm water maze): significant
blood TNF-α level compared with disease control group [2]: significant TNF-α level reduction
insulin resistance index ISI=ln (FBG*FINS) compared with disease control group [2]: significant ISI increase
urine albumin to creatinine ratio (ACR) compared with disease control group [2]: significant ACR reduction
EC50 [3]: < 6.4 µM
tumor volume at 30 days compared with disease control group [4]: significant tumor volume reduction
mRNA level of klotho gene in the brain of the mouse relative to vehicle control group ([5]; after 10 days of continuous injection): more than twice
fold induction at 10 mg/kg ([5]; Mus musculus, iv, 720 h, after 30 days of continuous injection, read-out: mRNA level of klotho gene in the brain of the mouse relative to vehicle control group): > 5
